Where a chain is given by its changes, count along the chain named.

What all share (conditions): at 1 µM
Assay [1] relates to T1, Receptor-type tyrosine-protein kinase FLT3 (Homo sapiens), P36888 [D835H].
T1 sequence (whole entry): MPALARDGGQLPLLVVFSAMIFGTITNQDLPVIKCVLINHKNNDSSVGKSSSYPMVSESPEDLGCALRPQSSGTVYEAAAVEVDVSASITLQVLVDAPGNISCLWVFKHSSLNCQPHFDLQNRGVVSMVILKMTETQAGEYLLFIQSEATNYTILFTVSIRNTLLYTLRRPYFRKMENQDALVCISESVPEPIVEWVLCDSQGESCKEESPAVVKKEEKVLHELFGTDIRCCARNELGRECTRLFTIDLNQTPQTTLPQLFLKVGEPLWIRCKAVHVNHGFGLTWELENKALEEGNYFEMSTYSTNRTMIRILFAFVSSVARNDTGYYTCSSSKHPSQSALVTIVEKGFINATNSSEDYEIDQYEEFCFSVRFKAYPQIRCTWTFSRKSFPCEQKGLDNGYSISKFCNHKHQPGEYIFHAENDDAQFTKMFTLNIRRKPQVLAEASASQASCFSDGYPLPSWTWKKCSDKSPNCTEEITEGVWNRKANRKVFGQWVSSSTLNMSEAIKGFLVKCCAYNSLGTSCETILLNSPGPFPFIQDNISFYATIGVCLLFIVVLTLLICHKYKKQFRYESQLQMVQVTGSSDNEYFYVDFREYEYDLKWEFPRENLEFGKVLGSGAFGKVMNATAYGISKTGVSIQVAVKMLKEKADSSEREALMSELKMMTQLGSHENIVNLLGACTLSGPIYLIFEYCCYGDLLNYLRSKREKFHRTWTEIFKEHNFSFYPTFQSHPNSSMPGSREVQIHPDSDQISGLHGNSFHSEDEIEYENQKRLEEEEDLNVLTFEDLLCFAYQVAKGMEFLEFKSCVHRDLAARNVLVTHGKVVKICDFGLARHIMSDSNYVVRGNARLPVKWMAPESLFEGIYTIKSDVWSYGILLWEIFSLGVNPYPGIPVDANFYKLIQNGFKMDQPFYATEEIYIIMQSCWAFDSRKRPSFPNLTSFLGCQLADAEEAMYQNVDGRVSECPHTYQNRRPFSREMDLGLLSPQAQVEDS
The assay can be described thus: (§1) Selectivity interaction (KinomeScan (DiscoverX)) EUB0000229b FLT3.

For assay [2], the system named is T2, Receptor-type tyrosine-protein kinase FLT3 (Homo sapiens), P36888 [D835V].
T2 sequence (whole entry): T1 sequence (whole entry) with H835V
The assay is described as §1.

The subject of assay [3] is T3, Receptor-type tyrosine-protein kinase FLT3 (Homo sapiens), P36888 [N841I].
T3 sequence (whole entry): T1 sequence (whole entry) with H835D, N841I
The description is as §1.

Assay [4] concerns Receptor-type tyrosine-protein kinase FLT3 (Homo sapiens), P36888 [UNDEFINED MUTATION]. Described as §1.

`COc1cc(N(C)c2ccnc3ccc(C(F)(F)F)cc23)cc(OC)c1OC`: the % binding in assay [1] came to 90%; in assay [2] it was 88%; in assay [3], 84%; in assay [4], 54%.

The record behind these values is ChEMBL document CHEMBL5465560, “Selectivity Literature for EUbOPEN Chemogenomic Library” (2024).
